These are literature values, as cited in paper PMC4753123 (Archives of biochemistry and biophysics, 2015).

The structures appear in SMILES notation.

The target in the data set is T1, Mtm1p (Saccharomyces cerevisiae, UniProt P53320).
T1 sequence (P53320 1-366): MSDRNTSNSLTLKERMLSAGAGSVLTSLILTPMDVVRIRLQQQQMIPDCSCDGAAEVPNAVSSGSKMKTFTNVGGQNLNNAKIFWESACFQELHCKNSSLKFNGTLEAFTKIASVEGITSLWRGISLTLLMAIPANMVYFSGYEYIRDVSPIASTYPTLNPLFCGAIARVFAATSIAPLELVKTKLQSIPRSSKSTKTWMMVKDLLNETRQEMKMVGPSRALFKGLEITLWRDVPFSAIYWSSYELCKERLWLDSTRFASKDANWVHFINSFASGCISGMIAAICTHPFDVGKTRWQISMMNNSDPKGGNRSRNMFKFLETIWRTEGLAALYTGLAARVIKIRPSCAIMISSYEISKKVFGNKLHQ
Nature of the data set: fluorescence titration. Format: binding. The note with it: purified recombinant protein.

For the compound `Cc1ncc(COP(=O)(O)O)c(C=O)c1O` [PLP], the Kd (commonly the constant that tells how readily two partners part at equilibrium) was 600 nM.
